Reference: patent publication US10357493B2, “Metalloenzyme inhibitor compounds” (Selenity Therapeutics (Bermuda), Ltd., priority 2017, dated 2019)

Tests used:
HDAC1 = HDAC1 (Homo sapiens (Human), UniProt Q13547); assay: HDAC1 enzymatic assay; format: biochemical; conditions: read-out: Human HDAC1 IC50
Method in brief: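 HDAC1 activity was measured in duplicate 50 μl reactions containing 0.5 ng HDAC1, 10 uM of HDAC substrate, and test compound in buffer (50 mM Tris-HCl, pH 7.4, 137 mM NaCl, 2.7 mM KCl, 0.05% Tween 20, 5 μg BSA) with 1% DMSO, incubated 17 hours at room temperature. HDAC Developer was then added for 20 minutes and fluorescence read at 360/460 nm.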

HDAC6 = HDAC6 (Homo sapiens (Human), UniProt Q9UBN7); assay: HDAC6 enzymatic assay; format: biochemical; conditions: read-out: Human HDAC6 IC50
Sequence of HDAC6 (Q9UBN7 whole entry): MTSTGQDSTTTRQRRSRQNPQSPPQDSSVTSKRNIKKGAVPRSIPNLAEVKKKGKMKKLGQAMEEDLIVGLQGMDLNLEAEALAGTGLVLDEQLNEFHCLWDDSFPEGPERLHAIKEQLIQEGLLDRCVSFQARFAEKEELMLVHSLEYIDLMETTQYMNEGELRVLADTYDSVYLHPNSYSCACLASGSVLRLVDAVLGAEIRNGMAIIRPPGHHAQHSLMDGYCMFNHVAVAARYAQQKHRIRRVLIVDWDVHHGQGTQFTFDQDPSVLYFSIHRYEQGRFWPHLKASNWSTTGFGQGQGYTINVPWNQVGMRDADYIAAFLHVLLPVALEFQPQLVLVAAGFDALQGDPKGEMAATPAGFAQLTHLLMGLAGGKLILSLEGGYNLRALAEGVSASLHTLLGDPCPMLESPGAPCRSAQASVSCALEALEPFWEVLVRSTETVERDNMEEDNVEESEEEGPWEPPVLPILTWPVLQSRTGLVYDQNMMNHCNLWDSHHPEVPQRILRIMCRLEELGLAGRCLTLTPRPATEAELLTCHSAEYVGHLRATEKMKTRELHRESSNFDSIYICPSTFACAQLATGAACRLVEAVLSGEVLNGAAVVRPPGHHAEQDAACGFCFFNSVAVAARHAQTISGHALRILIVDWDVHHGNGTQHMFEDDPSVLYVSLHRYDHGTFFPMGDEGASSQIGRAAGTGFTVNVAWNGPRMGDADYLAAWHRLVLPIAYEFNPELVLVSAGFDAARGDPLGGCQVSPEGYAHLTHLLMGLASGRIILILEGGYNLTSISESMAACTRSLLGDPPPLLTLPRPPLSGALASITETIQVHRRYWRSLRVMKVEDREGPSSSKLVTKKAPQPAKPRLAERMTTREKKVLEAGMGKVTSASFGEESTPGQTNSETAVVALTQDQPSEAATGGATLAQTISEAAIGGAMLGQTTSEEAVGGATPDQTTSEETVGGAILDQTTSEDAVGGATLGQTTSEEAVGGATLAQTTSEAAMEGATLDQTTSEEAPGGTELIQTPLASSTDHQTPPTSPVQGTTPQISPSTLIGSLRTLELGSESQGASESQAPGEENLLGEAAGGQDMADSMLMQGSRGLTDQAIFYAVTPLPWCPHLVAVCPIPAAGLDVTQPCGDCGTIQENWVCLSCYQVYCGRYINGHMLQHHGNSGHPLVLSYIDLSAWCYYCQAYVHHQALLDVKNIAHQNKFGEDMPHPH
Method in brief: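 Human HDAC6 activity was measured in duplicate 50 μl reactions holding 2 ng HDAC6, 10 uM of HDAC substrate and test compound in HDAC assay buffer (50 mM Tris-HCl, pH 7.4, 137 mM NaCl, 2.7 mM KCl, 0.05% Tween 20, 5 μg BSA) with 1% DMSO, for 17 hours at room temperature. HDAC Developer was added for 20 minutes before reading fluorescence at 360/460 nm.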

Sequence of HDAC1 (Q13547 whole entry): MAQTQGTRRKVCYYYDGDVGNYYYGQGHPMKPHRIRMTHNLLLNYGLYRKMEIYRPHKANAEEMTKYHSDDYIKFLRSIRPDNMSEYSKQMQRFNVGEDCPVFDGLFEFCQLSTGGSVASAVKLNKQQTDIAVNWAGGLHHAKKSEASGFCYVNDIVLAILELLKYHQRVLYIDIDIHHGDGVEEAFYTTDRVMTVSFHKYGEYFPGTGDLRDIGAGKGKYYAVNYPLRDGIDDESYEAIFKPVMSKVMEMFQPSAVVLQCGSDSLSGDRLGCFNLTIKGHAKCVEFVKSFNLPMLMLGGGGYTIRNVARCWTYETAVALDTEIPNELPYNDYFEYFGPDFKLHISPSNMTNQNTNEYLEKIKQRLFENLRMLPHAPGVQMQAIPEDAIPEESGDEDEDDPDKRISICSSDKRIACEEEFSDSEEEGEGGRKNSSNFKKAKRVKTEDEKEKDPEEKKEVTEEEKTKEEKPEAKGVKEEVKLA

CC(Nc1ncc(-c2nnc(C(F)(F)F)o2)cn1)c1ccccc1 (stereo not shown) [Example 2, N-(1-phenylethyl)-5-(5-(trifluoromethyl)-1,3,4-oxadiazol-2-yl)pyrimidin-2-amine]
IC50 (HDAC1): > 30000 nM | IC50 (HDAC6): 390 nM

FC(F)c1nnc(-c2cnc(NC3(c4cccc(OCC(F)(F)F)c4Cl)CC3)nc2)o1 [Example 87, N-(1-(2-chloro-3-(2,2,2-trifluoroethoxy)phenyl)cyclopropyl)-5-(5-(difluoromethyl)-1,3,4-oxadiazol-2-yl)pyrimidin-2-amine]
IC50 (HDAC1): > 30000 nM | IC50 (HDAC6): 120 nM

N#Cc1cc(C2(Nc3ncc(-c4nnc(C(F)F)o4)cn3)CC2)ccn1 [Example 83, 4-(1-((5-(5-(difluoromethyl)-1,3,4-oxadiazol-2-yl)pyrimidin-2-yl)amino)cyclopropyl)picolinonitrile]
IC50 (HDAC1): > 30000 nM | IC50 (HDAC6): 160 nM

Fc1ccc(C2(Nc3ncc(-c4nnc(C(F)F)o4)cn3)CC2)c(C(F)(F)F)c1 [Example 63, 5-(5-(difluoromethyl)-1,3,4-oxadiazol-2-yl)-N-(1-(4-fluoro-2-(trifluoromethyl)phenyl)cyclopropyl) pyrimidin-2-amine]
IC50 (HDAC1): > 30000 nM | IC50 (HDAC6): 88 nM

COc1cccc(C2(Nc3ncc(-c4nnc(C(F)F)o4)cn3)CC2)c1 [Example 43, 5-(5-(difluoromethyl)-1,3,4-oxadiazol-2-yl)-N-(1-(3-methoxyphenyl)cyclopropyl)pyrimidin-2-amine]
IC50 (HDAC1): > 30000 nM | IC50 (HDAC6): 39 nM

CS(=O)(=O)N(CC(Nc1ncc(-c2nnc(C(F)F)o2)cn1)c1ccc(OC(F)F)cc1F)CC(F)(F)F (stereo not drawn) [146(+), N-(2-(4-(difluoromethoxy)-2-fluorophenyl)-2-((5-(5-(difluoromethyl)-1,3,4-oxadiazol-2-yl)pyrimidin-2-yl)amino)ethyl)-N-(2,2,2-trifluoroethyl)methanesulfonamide]
IC50 (HDAC1): > 30000 nM | IC50 (HDAC6): 140 nM

CC(C)(Nc1ncc(-c2nnc(C(F)F)o2)cn1)c1c(F)cccc1F [Example 98, 5-(5-(difluoromethyl)-1,3,4-oxadiazol-2-yl)-N-(2-(2,6-difluorophenyl)propan-2-yl)pyrimidin-2-amine]
IC50 (HDAC1): > 30000 nM | IC50 (HDAC6): 16 nM

FC(F)c1nnc(-c2cnc(NC3(C4CCCCC4)CC3)nc2)o1 [Example 27, N-(1-cyclohexylcyclopropyl)-5-(5-(difluoromethyl)-1,3,4-oxadiazol-2-yl)pyrimidin-2-amine]
IC50 (HDAC1): > 30000 nM | IC50 (HDAC6): 74 nM

CS(=O)(=O)NCC(Nc1ncc(-c2nnc(C(F)F)o2)cn1)C1CC1 (single isomer, unassigned) [123(−), N-(2-cyclopropyl-2-((5-(5-(difluoromethyl)-1,3,4-oxadiazol-2-yl)pyrimidin-2-yl)amino)ethyl)methanesulfonamide]
IC50 (HDAC1): > 30000 nM | IC50 (HDAC6): 1100 nM

CC(NS(C)(=O)=O)C(Nc1ncc(-c2nnc(C(F)F)o2)cn1)c1ccc(F)cc1 (single isomer, unassigned) [Example 127B, N-(1-((5-(5-(difluoromethyl)-1,3,4-oxadiazol-2-yl)pyrimidin-2-yl)amino)-1-(4-fluorophenyl)propan-2-yl)methanesulfonamide]
IC50 (HDAC1): > 30000 nM | IC50 (HDAC6): 49 nM

FC(F)c1nnc(-c2cnc(NC3(c4cccnc4)CC3)nc2)o1 [Example 65, 5-(5-(difluoromethyl)-1,3,4-oxadiazol-2-yl)-N-(1-(pyridin-3-yl)cyclopropyl)pyrimidin-2-amine]
IC50 (HDAC1): > 30000 nM | IC50 (HDAC6): 390 nM

CS(=O)(=O)NCC(Nc1ncc(-c2nnc(C(F)F)o2)cn1)c1ccc(F)cc1F (single isomer, unassigned) [103(−), N-(2-((5-(5-(difluoromethyl)-1,3,4-oxadiazol-2-yl)pyrimidin-2-yl)amino)-2-(2,4-difluorophenyl)ethyl)methanesulfonamide]
IC50 (HDAC1): > 30000 nM | IC50 (HDAC6): 650 nM

Fc1ccc(Cl)c(C2(Nc3ncc(-c4nnc(C(F)F)o4)cn3)CC2)c1 [Example 80, N-(1-(2-chloro-5-fluorophenyl)cyclopropyl)-5-(5-(difluoromethyl)-1,3,4-oxadiazol-2-yl)pyrimidin-2-amine]
IC50 (HDAC1): > 30000 nM | IC50 (HDAC6): 23 nM

Fc1ccc(C(CC(F)(F)F)Nc2ncc(-c3nnc(C(F)F)o3)cn2)c(F)c1 (single isomer, unassigned) [101(+)]
IC50 (HDAC1): > 30000 nM | IC50 (HDAC6): 22 nM

CS(=O)(=O)N(CC(Nc1ncc(-c2nnc(C(F)F)o2)cn1)c1ccc(F)c(F)c1)CC(F)(F)F (single isomer, unassigned) [172(B), N-(2-((5-(5-(difluoromethyl)-1,3,4-oxadiazol-2-yl)pyrimidin-2-yl)amino)-2-(3,4-difluorophenyl)ethyl)-N-(2,2,2-trifluoroethyl)methanesulfonamide]
IC50 (HDAC1): > 30000 nM | IC50 (HDAC6): 86 nM

O=S1(=O)CCCN1CC(Nc1ncc(-c2nnc(C(F)F)o2)cn1)c1ccc(F)cc1 (single isomer, unassigned; (-)) [120(−), (−)-2-(2-((5-(5-(difluoromethyl)-1,3,4-oxadiazol-2-yl)pyrimidin-2-yl)amino)-2-(4-fluorophenyl)ethyl)isothiazolidine 1,1-dioxide]
IC50 (HDAC1): > 30000 nM | IC50 (HDAC6): 150 nM

FC(F)c1nnc(-c2cnc(NC3(c4ccccc4Cl)CC3)nc2)o1 [Example 52, N-(1-(2-chlorophenyl)cyclopropyl)-5-(5-(difluoromethyl)-1,3,4-oxadiazol-2-yl)pyrimidin-2-amine]
IC50 (HDAC1): > 30000 nM | IC50 (HDAC6): 6 nM

O=C(C1CC1)N(CC(Nc1ncc(-c2nnc(C(F)F)o2)cn1)c1ccc(F)cc1)CC(F)(F)F (single isomer, unassigned) [170(+), N-(2-((5-(5-(difluoromethyl)-1,3,4-oxadiazol-2-yl)pyrimidin-2-yl)amino)-2-(4-fluorophenyl)ethyl)-N-(2,2,2-trifluoroethyl)cyclopropanecarboxamide]
IC50 (HDAC1): > 30000 nM | IC50 (HDAC6): 160 nM

Fc1ccccc1C1(Nc2ncc(-c3nnc(C(F)F)o3)cn2)CC1 [Example 56, 5-(5-(difluoromethyl)-1,3,4-oxadiazol-2-yl)-N-(1-(2-fluorophenyl)cyclopropyl)pyrimidin-2-amine]
IC50 (HDAC1): > 100000 nM | IC50 (HDAC6): 6 nM

Fc1ccc(C(CC(F)(F)F)Nc2ncc(-c3nnc(C(F)F)o3)cn2)cc1 (single isomer, unassigned; (+)) [13(+), (+)-5-(5-(difluoromethyl)-1,3,4-oxadiazol-2-yl)-N-(3,3,3-trifluoro-1-(4-fluorophenyl)propyl)pyrimidin-2-amine]
IC50 (HDAC1): > 30000 nM | IC50 (HDAC6): 30 nM

CS(=O)(=O)NCC(Nc1ncc(-c2nnc(C(F)F)o2)cn1)c1ccc(F)c(F)c1 (single isomer, unassigned) [171(−), N-(2-((5-(5-(difluoromethyl)-1,3,4-oxadiazol-2-yl)pyrimidin-2-yl)amino)-2-(3,4-difluorophenyl)ethyl)methanesulfonamide]
IC50 (HDAC1): > 30000 nM | IC50 (HDAC6): 590 nM

CC(=O)NCC(Nc1ncc(-c2nnc(C(F)F)o2)cn1)c1ccc(F)cc1 (racemic) [Example 78, N-(2-((5-(5-(difluoromethyl)-1,3,4-oxadiazol-2-yl)pyrimidin-2-yl)amino)-2-(4-fluorophenyl)ethyl)acetamide]
IC50 (HDAC1): > 30000 nM | IC50 (HDAC6): 47 nM

CCCC(Nc1ncc(-c2nnc(C(F)F)o2)cn1)c1ccc(F)cc1 (stereo not shown) [Example 23, 5-(5-(difluoromethyl)-1,3,4-oxadiazol-2-yl)-N-(1-(4-fluorophenyl)butyl)pyrimidin-2-amine]
IC50 (HDAC1): > 30000 nM | IC50 (HDAC6): 100 nM

Fc1ccc2c(c1)CCC2Nc1ncc(-c2nnc(C(F)F)o2)cn1 (stereo not shown) [Example 29, 5-(5-(difluoromethyl)-1,3,4-oxadiazol-2-yl)-N-(5-fluoro-2,3-dihydro-1H-inden-1-yl)pyrimidin-2-amine]
IC50 (HDAC1): > 30000 nM | IC50 (HDAC6): 450 nM

FC(F)c1nnc(-c2cnc(NC3(c4ccccc4C(F)(F)F)CC3)nc2)o1 [Example 58, 5-(5-(difluoromethyl)-1,3,4-oxadiazol-2-yl)-N-(1-(2-(trifluoromethyl)phenyl)cyclopropyl) pyrimidin-2-amine]
IC50 (HDAC1): > 30000 nM | IC50 (HDAC6): 40 nM

O=S(=O)(C1CC1)N(CC(Nc1ncc(-c2nnc(C(F)F)o2)cn1)c1ccc(OC(F)(F)F)cc1)CC(F)(F)F (stereo not drawn) [160(+), N-(2-((5-(5-(difluoromethyl)-1,3,4-oxadiazol-2-yl)pyrimidin-2-yl)amino)-2-(4-(trifluoromethoxy)phenyl)ethyl)-N-(2,2,2-trifluoroethyl)cyclopropanesulfonamide]
IC50 (HDAC1): > 30000 nM | IC50 (HDAC6): 580 nM

CC(=O)N(CC(Nc1ncc(-c2nnc(C(F)F)o2)cn1)c1ccc(F)cc1)CC(F)(F)F (single isomer, unassigned) [167(−), N-(2-((5-(5-(difluoromethyl)-1,3,4-oxadiazol-2-yl)pyrimidin-2-yl)amino)-2-(4-fluorophenyl)ethyl)-N-(2,2,2-trifluoroethyl)acetamide]
IC50 (HDAC1): > 30000 nM | IC50 (HDAC6): 690 nM

O=C(NCC(Nc1ncc(-c2nnc(C(F)F)o2)cn1)c1ccc(F)cc1)c1ccccc1 (stereo not shown) [Example 79, N-(2-((5-(5-(difluoromethyl)-1,3,4-oxadiazol-2-yl)pyrimidin-2-yl)amino)-2-(4-fluorophenyl)ethyl)benzamide]
IC50 (HDAC1): > 30000 nM | IC50 (HDAC6): 76 nM

Fc1ccc(OC(F)(F)F)cc1C1(Nc2ncc(-c3nnc(C(F)F)o3)cn2)CC1 [Example 75, 5-(5-(difluoromethyl)-1,3,4-oxadiazol-2-yl)-N-(1-(2-fluoro-5-(trifluoromethoxy)phenyl)cyclopropyl)pyrimidin-2-amine]
IC50 (HDAC1): > 30000 nM | IC50 (HDAC6): 38 nM
